Broadly, the IC50 is the midpoint of a concentration-inhibition curve. Low readings indicate higher potency, high ones lower potency. Usually IC20 stands for the point of the concentration-response curve where the effect stands at 20%.

The source of these data is patent US20200237764A1, “DRUG COMBINATIONS FOR TARGETING MULTIPLE MUTATIONS IN CANCER” (CureMatch, Inc., priority 2017, published 2020).

Molecules are shown by their SMILES.

The test relates to CAPAN2 cells. Nature of the test: WST-1 colorimetric cell viability assay in CAPAN2 cells. The format is cell-based, human. Conditions: for cell death: at 300 nM, 48 hrs; for IC50 / IC20: Homo sapiens, Capan-2, CAPAN2 cell survival. As to the method: The human pancreatic cancer cell line CAPAN2, was purchased from the American Type Culture Collection (ATCC; Manassas, Va.). Cells were grown in McCoy's Modified 5A media supplemented with 10% FCS, 1× penicillin/streptomycin and 1× amphotericin. For testing, cells were released from the dishes by treatment with PBS (without calcium) for ˜30 min followed by 0.25% trypsin-EDTA for 5 minutes at 37 C. Cells were collected in a 15 ml centrifuge tube and spun down in a clinical centrifuge for 5 min and then re-suspended in 1 ml of fresh media and the cells were counted using a hemocytometer. Cells (1×10^3-5×10^3) were then seeded into 96-well plates in 100 μL of media and the cells were incubated for 48 hours. After 48 hours, the media was replaced and the cells were re-incubated for another 24 hours prior to treatment with the drugs.
Stock drug solutions were prepared in complete media from master stock solutions prepared in DMSO according to the manufacturer's instructions. Using these stock solutions, 1:1, 2:1, 5:1, and 10:1 volume-volume (v/v) mixtures of regorafenib and trametinib were prepared. These mixtures were then two-fold serially diluted to generate a range of 20 concentrations in each case. The cells were incubated in drug mixtures for 48-72 hours before cell viability assay/assessment.
Cell viability was determined using a WST-1 colorimetric cell proliferation assay (Roche), according to manufacturer's instructions. The stable tetrazolium salt WST-1 is cleaved to a soluble formazan by a complex cellular mechanism that occurs primarily at the cell surface. This reduction is largely dependent on the glycolytic production of NAD(P)H in viable cells. Therefore, the amount of formazan dye formed, and estimated using a spectrophotometer (BIO-TEK 340, BIOTEK) directly correlates to the number of metabolically active cells in the culture. All testing points were done at least in triplicate.
In general terms: Tetrazolium dyes change colour on reduction, which living cells bring about.

Where [1] appears, read: monotherapy, two-fold serial dilution 2 nM to 1 mM, 48-72 hours.

With `CC(=O)Nc1cccc(-n2c(=O)n(C3CC3)c(=O)c3c(Nc4ccc(I)cc4F)n(C)c(=O)c(C)c32)c1` [trametinib], the cell death (CAPAN2 cells) is on record as −10%. Also, it took 28 nM to reach half-maximal inhibition (100 μM to 0.2 nM, 48-72 hours) (IC50). This molecule registered an IC20 (48-72 hours) of 4 nM.

With `Nc1ccn([C@@H]2O[C@H](CO)[C@@H](O)C2(F)F)c(=O)n1` [gemcitabine], the “effect on CAPAN2 cell survival (in words)” value (CAPAN2 cells, 48-72 hours) is given as “little, if any, effect on cell survival”. The “maximum decrease in cell viability” value (CAPAN2 cells, concentration of 1 mM, 48-72 hours) was −30%. Under setting [1], this molecule registered an IC20 of 111000 nM.

On to `CNC(=O)c1cc(Oc2ccc(NC(=O)Nc3ccc(Cl)c(C(F)(F)F)c3)c(F)c2)ccn1` [regorafenib], for which the “effect on CAPAN2 cell survival (in words)” value (CAPAN2 cells, 48-72 hours) is “significant reduction in cell survival”. Besides, the cell death (CAPAN2 cells) is −2%. The same molecule returned an IC50 (2 nM to 1 mM) of 7100 nM. Under setting [1], this molecule had a 20% effect concentration (IC20) of 2000 nM.
